Assay: xn = mol fraction of the nth substance listed
Settings: 101 kPa

OCCO + CCCCCC[n+]1ccn(C)c1.[Cl-]
x1 = 1
Settings | viscosity [mPa·s]
293.15 K | 21.35
303.15 K | 14.1
313.15 K | 9.74
323.15 K | 7.02
333.15 K | 5.2

CCCCCC[n+]1ccn(C)c1.[Cl-] + OCCO
viscosity [mPa·s]
Settings | 293.15 K | 303.15 K | 313.15 K | 323.15 K | 333.15 K
x1 = 0.003 | – | 14.18 | 9.77 | 7.07 | 5.21
x1 = 0.0061 | 21.52 | 14.23 | 9.86 | – | –
x1 = 0.0124 | 21.64 | 14.24 | 9.94 | 7.17 | 5.33
x1 = 0.0188 | 21.81 | – | – | 7.24 | 5.4
x2 = 0 | 11400 | – | 1718 | – | 398
x2 = 0.1526 | 3449 | 861 | 629 | 326 | –
x2 = 0.3167 | 774 | 385 | 214.7 | 127.1 | 79.6
x2 = 0.3999 | 387 | 210.7 | 124.2 | 77.3 | 51.2
x2 = 0.4977 | – | 102.8 | 65.1 | 42.5 | –
x2 = 0.6002 | – | 53 | 35.51 | – | 18.06
x2 = 0.6987 | 46.8 | 30.76 | – | – | –
x2 = 0.8026 | 29.46 | 19.81 | 13.95 | 10.18 | 7.71
x2 = 0.8897 | 24.2 | 16.2 | – | 8.37 | 6.32
x2 = 0.8998 | 23.77 | 16.02 | 11.25 | – | 6.18
x2 = 0.9152 | 23.12 | 15.52 | 10.98 | 7.98 | 6
x2 = 0.931 | 22.64 | 15.24 | 10.67 | 7.73 | 5.82
x2 = 0.9532 | 22.13 | 14.78 | 10.37 | 7.51 | –
x2 = 0.9642 | 22.02 | 14.71 | – | – | 5.53
x2 = 0.9761 | 21.83 | 14.45 | – | 7.27 | 5.46

CCCCCO + CCCCCC[n+]1ccn(C)c1.[Cl-]
x1 = 1
Settings | viscosity [mPa·s]
293.15 K | 3.99
313.15 K | 2.29
323.15 K | 1.79
333.15 K | 1.39

CCCCCC[n+]1ccn(C)c1.[Cl-] + CCCCCO
viscosity [mPa·s]
Settings | 293.15 K | 303.15 K | 313.15 K | 323.15 K | 333.15 K
x1 = 0.0042 | 4.14 | – | – | 1.85 | 1.46
x1 = 0.0088 | – | 3.23 | 2.49 | 1.92 | 1.54
x1 = 0.0166 | 4.56 | – | 2.62 | 2.03 | 1.61
x2 = 0 | 11400 | 4206 | 1718 | – | 398
x2 = 0.1514 | 3550 | – | 803 | 418 | 192.5
x2 = 0.2971 | 1014 | 491 | – | 148.2 | 91
x2 = 0.5018 | 182.4 | 108.3 | 68.1 | 44.92 | 31.33
x2 = 0.6066 | 75.1 | 48.8 | 32.87 | 23.14 | 16.9
x2 = 0.7018 | 31.71 | 22.14 | 16.01 | 11.88 | –
x2 = 0.8012 | 14.74 | 10.86 | – | – | 4.99
x2 = 0.849 | – | 7.85 | 6.03 | 4.68 | 3.76
x2 = 0.8825 | 8.5 | 6.37 | 4.92 | 3.87 | 3.06
x2 = 0.9494 | 5.73 | 4.29 | 3.28 | 2.56 | 2.02
x2 = 0.9749 | 4.83 | 3.63 | 2.81 | 2.17 | 1.71
